The term Kd denotes the equilibrium constant for the complex coming apart.

Drawing on patent US7494992B2, “Antiparasitic terpene alkaloids” (Pfizer Inc., priority 2003, dated 2009), this text covers Kd for one substance.

This assay addresses fly head P2 membranes. As to the kind of experiment: radiometric assay: displacement of 3H-dihydro-CJ-12662 from fly head P2 membranes (Ki; also single-concentration high throughput screen, % inhibition). Also on record: species or system Lucilia sericata. The conditions noted are these: radioligand binding to fly head P2 membranes; value used to calculate Ki values. The method, then: A further aspect of the invention is a novel binding assay which is used to assess the potential antiparasitic activity of these compounds by measuring how tightly they bind to membranes purified from parasite homogenates. The affinity is calculated according to how readily the compounds of the present invention displace a radiolabeled, reduced analogue of (1S,2R,4aS,5R,8R,8aR)-2-(acetyloxy)-8a-hydroxy-3,8-dimethyl-5-(1-methylethenyl)-1,2,4a,5,6,7,8,8a-octahydronaphthalen-1-yl(2S,3aR,9bR)-6-chloro-9b-hydroxy-5-methyl-1,2,3,3a,5,9b-hexahydropyrrolo[2,3-c][2,1]benzoxazine-2-carboxylate from these membranes.
The in vitro assay for measurement of compounds which displace ^3H-dihydro-(1S,2R,4aS,5R,8R,8aR)-2-(acetyloxy)-8a-hydroxy-3,8-dimethyl-5-(1-methylethenyl)-1,2,4a,5,6,7,8,8a-octahydronaphthalen-1-yl(2S,3aR,9bR)-6-chloro-9b-hydroxy-5-methyl-1,2,3,3a,5,9b-hexahydropyrrolo[2,3-c][2,1]benzoxazine-2-carboxylate from fly head P2 membranes represents another aspect of the invention and was performed as follows. […]

Consider “^3H-dihydro-(1S,2R,4aS,5R,8R,8aR)-2-(acetyloxy)-8a-hydroxy-3,8-dimethyl-5-(1-methylethenyl)-1,2,4a,5,6,7,8,8a-octahydronaphthalen-1-yl(2S,3aR,9bR)-6-chloro-9b-hydroxy-5-methyl-1,2,3,3a,5,9b-hexahydropyrrolo[2,3-c][2,1]benzoxazine-2-carboxylate [^3H-dihydro-CJ-12662]”, for which the dissociation constant Kd is 7 nM.
